Measured values published in patent US20140308244A1, “Combination Therapy for Treatment of Inflammatory Demyelinating Disease” (The Board of Trustees of the Leland Stanford Junior …, priority 2011, published 2014).

Tests used:
[1] = tested on: experimental autoimmune encephalomyelitis (EAE); settings: mouse model for multiple sclerosis; Platten et al, 2009, PNAS 106:14948; cited from earlier work
EAE = EAE relapse model: Rebif and/or Lisinopril treatment initiated at peak of disease; assay type: in vivo; settings: Rebif daily 0.25 μg/mouse intraperitoneally, Lisinopril 1 mg/kg/day orally
Description: FIG. 2 is a graph of disease scores for EAE, when combination treatment of Rebif and Lisinopril is initiated at the peak of disease.
In this instance, Rebif was given daily (0.25 μg/mouse, intraperitoneally), and Lisinopril was given daily (1 mg/kg/day, orally).

## NCCCC[C@H](N[C@@H](CCc1ccccc1)C(=O)O)C(=O)N1CCC[C@H]1C(=O)O [Lisinopril]
[1]
  efficacy in treating EAE: effective
EAE
  Average Relapse Rate: 0.7
EAE; listed as PBS/Lisinopril
  Average Relapse Rate: 0.70
